Experimental data taken from ChEMBL document CHEMBL1201862, “PubChem BioAssay data set” (2004).
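Where inhibition never reached the appropriate level, the endpoint shown equals the highest concentration tested. Otherwise, values were interpolated linearly from a five-concentration, 48-hour dose response in 96-well plates. GI50: concentration for 50% inhibition of growth.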 Active and inactive are the calls of the source. No stated cut-off is given here; in the data, active = GI50 up to about 1.1 µM and inactive = higher.

Assays:
Assay in all cases: growth of human tumour cells (NCI), 48 h
786-0 = system: 786-0
A498 = system: A498
A549 = system: A549
ACHN = system: ACHN
BT-549 = system: BT-549
CAKI-1 = system: CAKI-1
CCRF-CEM = system: CCRF-CEM
COLO 205 = system: COLO 205
DU-145 = system: DU-145
EKVX = system: EKVX
HCC 2998 = system: HCC 2998
HCT-116 = system: HCT-116
HCT-15 = system: HCT-15
HL-60 = system: HL-60
HOP-92 = system: HOP-92
HT-29 = system: HT-29
Hs-578T = system: Hs-578T
IGROV-1 = system: IGROV-1
K562 = system: K562
KM12 = system: KM12
LOX IMVI = system: LOX IMVI
M14 = system: M14
MCF7 = system: MCF7
MDA-MB-231 = system: MDA-MB-231
MDA-MB-435 = system: MDA-MB-435
MDA-N = system: MDA-N
MOLT-4 = system: MOLT-4
NCI-H226 = system: NCI-H226
NCI-H23 = system: NCI-H23
NCI-H460 = system: NCI-H460
NCI-H522 = system: NCI-H522
NCI/ADR-RES = system: NCI/ADR-RES
OVCAR-3 = system: OVCAR-3
OVCAR-4 = system: OVCAR-4
OVCAR-5 = system: OVCAR-5
OVCAR-8 = system: OVCAR-8
PC-3 = system: PC-3
RPMI-8226 = system: RPMI-8226
SF-268 = system: SF-268
SF-295 = system: SF-295
SF-539 = system: SF-539
SK-MEL-28 = system: SK-MEL-28
SK-MEL-2 = system: SK-MEL-2
SK-MEL-5 = system: SK-MEL-5
SK-OV-3 = system: SK-OV-3
SN12C = system: SN12C
SNB-19 = system: SNB-19
SR = system: SR
SW-620 = system: SW-620
TK-10 = system: TK-10
U-251 = system: U-251
UACC-257 = system: UACC-257
UACC-62 = system: UACC-62
UO-31 = system: UO-31
HOP-62 = system: HOP-62
Malme-3M = system: Malme-3M
RXF 393 = system: RXF 393
SNB-75 = system: SNB-75
T47D = system: T47D

With `COc1cccc(N2C(=O)CSC2c2cc(OC)c(OC)c(OC)c2)c1` (configuration not stated) the GI50 (786-0) was 28.9 µM (inactive), the GI50 (A498) was > 100 µM (inactive) and the GI50 (A549) was 37.1 µM (inactive). For the same compound, the GI50 (ACHN) was 57.7 µM (inactive), the GI50 (BT-549) was 22.1 µM (inactive) and the GI50 (CAKI-1) was 30.8 µM (inactive). The GI50 (CCRF-CEM) was 19.1 µM (inactive), the GI50 (COLO 205) was 23 µM (inactive) and the GI50 (DU-145) was 12 µM (inactive). The GI50 (EKVX) was 49.7 µM (inactive), the GI50 (HCC 2998) was 22.7 µM (inactive) and the GI50 (HCT-116) was 31.8 µM (inactive). The GI50 (HCT-15) was 20 µM, the GI50 (HL-60) was 31.7 µM (inactive) and the GI50 (HOP-92) was > 100 µM (inactive). For the same compound, the GI50 (HT-29) was 33.1 µM (inactive), the GI50 (Hs-578T) was 48.2 µM (inactive) and the GI50 (IGROV-1) was 44.6 µM (inactive). The GI50 (K562) was 25.9 µM (inactive), the GI50 (KM12) was 12.2 µM (inactive) and the GI50 (LOX IMVI) was 32.8 µM (inactive). For the same compound, the GI50 (M14) was 27.7 µM (inactive), the GI50 (MCF7) was 19.4 µM (inactive) and the GI50 (MDA-MB-231) was 69.7 µM (inactive). The GI50 (MDA-MB-435) was 3.85 µM (inactive), the GI50 (MDA-N) was 3.95 µM (inactive) and the GI50 (MOLT-4) was 29.8 µM (inactive). The GI50 (NCI-H226) was 26.7 µM (inactive), the GI50 (NCI-H23) was 29.2 µM (inactive) and the GI50 (NCI-H460) was 27.8 µM (inactive). The GI50 (NCI-H522) was 26.4 µM (inactive), the GI50 (NCI/ADR-RES) was 26.5 µM (inactive) and the GI50 (OVCAR-3) was 20.7 µM (inactive). The GI50 (OVCAR-4) was 47.3 µM (inactive), the GI50 (OVCAR-5) was 54.8 µM (inactive) and the GI50 (OVCAR-8) was 36 µM (inactive). For the same compound, the GI50 (PC-3) was 55.1 µM (inactive), the GI50 (RPMI-8226) was 29 µM (inactive) and the GI50 (SF-268) was > 100 µM (inactive). The GI50 (SF-295) was 21.8 µM (inactive), the GI50 (SF-539) was 24.5 µM (inactive) and the GI50 (SK-MEL-28) was 62.2 µM (inactive). The GI50 (SK-MEL-2) was > 100 µM (inactive), the GI50 (SK-MEL-5) was 19.8 µM (inactive) and the GI50 (SK-OV-3) was 26.7 µM (inactive). For the same compound, the GI50 (SN12C) was 44.1 µM (inactive), the GI50 (SNB-19) was 23.1 µM (inactive) and the GI50 (SR) was 5.75 µM (inactive). For the same compound, the GI50 (SW-620) was 39.7 µM (inactive), the GI50 (TK-10) was > 100 µM (inactive) and the GI50 (U-251) was 34.8 µM (inactive). The GI50 (UACC-257) was 20.9 µM (inactive), the GI50 (UACC-62) was 34.2 µM (inactive) and the GI50 (UO-31) was 36.8 µM (inactive).
`CCNC1(c2cccc(C)c2)OC(C)(C)c2cccc3cccc1c23` (configuration not stated) was tested, and the GI50 (786-0) was 18.8 µM (inactive), the GI50 (A498) was 17.5 µM (inactive) and the GI50 (A549) was 15.6 µM (inactive). The GI50 (ACHN) was 17 µM (inactive), the GI50 (BT-549) was 18.9 µM (inactive) and the GI50 (CAKI-1) was 19.8 µM (inactive). The GI50 (CCRF-CEM) was 2.5 µM (inactive), the GI50 (COLO 205) was 16.1 µM (inactive) and the GI50 (DU-145) was 17.7 µM (inactive). The GI50 (EKVX) was 18.8 µM (inactive), the GI50 (HCT-116) was 27 µM (inactive) and the GI50 (HCT-15) was 19.6 µM. For the same compound, the GI50 (HL-60) was 0.646 µM (active), the GI50 (HOP-62) was 21 µM (inactive) and the GI50 (HOP-92) was 3.83 µM (inactive). The GI50 (HT-29) was 14 µM (inactive), the GI50 (Hs-578T) was 20.1 µM (inactive) and the GI50 (IGROV-1) was 17.8 µM (inactive). The GI50 (K562) was 11.7 µM (inactive), the GI50 (KM12) was 21.9 µM (inactive) and the GI50 (LOX IMVI) was 17.3 µM (inactive). The GI50 (M14) was 17.8 µM (inactive), the GI50 (MCF7) was 17.7 µM (inactive) and the GI50 (MDA-MB-435) was 16.9 µM (inactive). For the same compound, the GI50 (MDA-N) was 19.3 µM (inactive), the GI50 (Malme-3M) was 16.3 µM (inactive) and the GI50 (NCI-H226) was 19.9 µM (inactive). The GI50 (NCI-H23) was 17.9 µM (inactive), the GI50 (NCI-H460) was 15.2 µM (inactive) and the GI50 (NCI-H522) was 15.1 µM (inactive). The GI50 (NCI/ADR-RES) was 19.8 µM (inactive), the GI50 (OVCAR-3) was 17.3 µM (inactive) and the GI50 (OVCAR-4) was 16 µM (inactive). The GI50 (OVCAR-5) was 19.1 µM (inactive), the GI50 (OVCAR-8) was 18.4 µM (inactive) and the GI50 (RPMI-8226) was 0.0321 µM (active). The GI50 (RXF 393) was 16.8 µM (inactive), the GI50 (SF-268) was 16 µM (inactive) and the GI50 (SF-295) was 17.9 µM (inactive). The GI50 (SF-539) was 17.9 µM (inactive), the GI50 (SK-MEL-2) was 15.7 µM (inactive) and the GI50 (SK-MEL-5) was 19.1 µM (inactive). For the same compound, the GI50 (SK-OV-3) was 17.7 µM (inactive), the GI50 (SN12C) was 19 µM (inactive) and the GI50 (SNB-19) was 18.2 µM (inactive). The GI50 (SNB-75) was 15 µM (inactive), the GI50 (SR) was 5.16 µM (inactive) and the GI50 (SW-620) was 17.8 µM (inactive). The GI50 (T47D) was 26.9 µM (inactive), the GI50 (TK-10) was 17.3 µM (inactive) and the GI50 (U-251) was 16.9 µM (inactive). For the same compound, the GI50 (UACC-257) was 18.8 µM (inactive), the GI50 (UACC-62) was 15.6 µM (inactive) and the GI50 (UO-31) was 16.1 µM (inactive).
For `CCOC(=O)C(=Cc1[nH]c2ccccc2c1-c1c[nH]c2ccccc12)C(=O)OCC`, the GI50 (786-0) was 2.75 µM (inactive), the GI50 (A498) was 14.5 µM (inactive) and the GI50 (A549) was 16.6 µM (inactive). For the same compound, the GI50 (ACHN) was 12.2 µM (inactive), the GI50 (BT-549) was 14.7 µM (inactive) and the GI50 (CAKI-1) was 17.1 µM (inactive). For the same compound, the GI50 (COLO 205) was 16.2 µM (inactive), the GI50 (DU-145) was 14.1 µM (inactive) and the GI50 (EKVX) was 16.1 µM (inactive). The GI50 (HCC 2998) was 11.6 µM (inactive), the GI50 (HCT-116) was 10.8 µM (inactive) and the GI50 (HCT-15) was 10.1 µM. For the same compound, the GI50 (HOP-62) was 14.2 µM (inactive), the GI50 (HOP-92) was 11 µM (inactive) and the GI50 (HT-29) was 5 µM (inactive). For the same compound, the GI50 (Hs-578T) was 29.9 µM (inactive), the GI50 (IGROV-1) was 11.1 µM (inactive) and the GI50 (K562) was 4.12 µM (inactive). The GI50 (KM12) was 4.69 µM (inactive), the GI50 (LOX IMVI) was 12.7 µM (inactive) and the GI50 (M14) was 10 µM (inactive). The GI50 (MCF7) was 4.71 µM (inactive), the GI50 (MDA-MB-231) was 16.9 µM (inactive) and the GI50 (MDA-MB-435) was 5.96 µM (inactive). The GI50 (MDA-N) was 13.3 µM (inactive), the GI50 (MOLT-4) was 0.923 µM (active) and the GI50 (Malme-3M) was 18.7 µM (inactive). For the same compound, the GI50 (NCI-H226) was 14 µM (inactive), the GI50 (NCI-H23) was 15.3 µM (inactive) and the GI50 (NCI-H460) was 12.6 µM (inactive). The GI50 (NCI-H522) was 54.7 µM (inactive), the GI50 (NCI/ADR-RES) was 7.16 µM (inactive) and the GI50 (OVCAR-3) was 9.33 µM (inactive). The GI50 (OVCAR-4) was 6.76 µM (inactive), the GI50 (OVCAR-5) was 15.1 µM (inactive) and the GI50 (OVCAR-8) was 11.3 µM (inactive). The GI50 (PC-3) was 10.3 µM (inactive), the GI50 (RPMI-8226) was 2.84 µM (inactive) and the GI50 (RXF 393) was 10.8 µM (inactive). For the same compound, the GI50 (SF-268) was 13.3 µM (inactive), the GI50 (SF-295) was 12.1 µM (inactive) and the GI50 (SF-539) was 18.5 µM (inactive). For the same compound, the GI50 (SK-MEL-2) was 11.7 µM (inactive), the GI50 (SK-MEL-5) was 15.5 µM (inactive) and the GI50 (SK-OV-3) was 20.3 µM (inactive). For the same compound, the GI50 (SN12C) was 15 µM (inactive), the GI50 (SNB-19) was 14.2 µM (inactive) and the GI50 (SNB-75) was 12.9 µM (inactive). For the same compound, the GI50 (SR) was 3.13 µM (inactive), the GI50 (TK-10) was 12.7 µM (inactive) and the GI50 (U-251) was 11.7 µM (inactive). For the same compound, the GI50 (UACC-257) was 10.4 µM (inactive), the GI50 (UACC-62) was 4.88 µM (inactive) and the GI50 (UO-31) was 13.5 µM (inactive).
